Test results published in patent publication US8604042B2, “Bi-aryl meta-pyrimidine inhibitors of kinases” (TargeGen, Inc., priority 2005, dated 2013).
Structures can show the parent of a compound that is named as a salt. Where two headings read alike, the source gives them in different places. Each block holds one compound with its values, some of them ahead of it.

Tests used:
[1] = Ocular exposure after eye drop administration; format: in vivo; settings: mouse, bilateral topical instillation of 0.1% formulation QDX1
Description: Exposure data of compounds at 0.1% via eye drop administration:
On topical dosing of compounds formulated as 0.1% doses in 0.2% tyloxapol/1% HPMC/4% Mannitol, exposure levels in found in back of the eye tissues of the mouse are shown at two different time points, namely at 2 h and at 7 h.

[2] = tested on: EOL-1, a chronic eosinophilic leukemia (CEL) derived line (FIP1L1-PDFRA-positive); test: XTT cell proliferation assay, EOL-1; format: cell-based
recombinant JAK2 = target: T1, recombinant JAK2 (Homo sapiens, UniProt O60674); test: IC50 value determinations for Jak2 kinase, luminescence-based kinase assay (Kinase-Glo); format: biochemical; settings: Table 1
T1 construct: purchased Upstate Cell Signaling Solutions
T1 sequence (O60674 808-1132 limits assumed): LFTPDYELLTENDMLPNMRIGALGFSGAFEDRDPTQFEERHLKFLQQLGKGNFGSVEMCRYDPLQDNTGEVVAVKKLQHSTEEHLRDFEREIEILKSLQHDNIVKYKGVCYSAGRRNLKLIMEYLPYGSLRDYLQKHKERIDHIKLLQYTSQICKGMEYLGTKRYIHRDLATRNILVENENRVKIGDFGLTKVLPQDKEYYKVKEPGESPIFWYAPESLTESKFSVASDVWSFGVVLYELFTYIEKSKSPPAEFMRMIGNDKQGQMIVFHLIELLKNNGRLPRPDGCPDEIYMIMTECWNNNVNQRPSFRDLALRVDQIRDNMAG

[3] = target: T2, Ba/F3 T674I (FIP1L1-PDFRA-T674I) (Homo sapiens, UniProt P16234, T674I, cells depend on it); test: XTT cell proliferation assay, Ba/F3 T674I; format: cell-based
T2 construct: fused on or other part: Q6UN15 (Pre-mRNA 3'-end-processing factor FIP1)
T2 sequence (P16234 whole entry T674I, the tested form may be a part): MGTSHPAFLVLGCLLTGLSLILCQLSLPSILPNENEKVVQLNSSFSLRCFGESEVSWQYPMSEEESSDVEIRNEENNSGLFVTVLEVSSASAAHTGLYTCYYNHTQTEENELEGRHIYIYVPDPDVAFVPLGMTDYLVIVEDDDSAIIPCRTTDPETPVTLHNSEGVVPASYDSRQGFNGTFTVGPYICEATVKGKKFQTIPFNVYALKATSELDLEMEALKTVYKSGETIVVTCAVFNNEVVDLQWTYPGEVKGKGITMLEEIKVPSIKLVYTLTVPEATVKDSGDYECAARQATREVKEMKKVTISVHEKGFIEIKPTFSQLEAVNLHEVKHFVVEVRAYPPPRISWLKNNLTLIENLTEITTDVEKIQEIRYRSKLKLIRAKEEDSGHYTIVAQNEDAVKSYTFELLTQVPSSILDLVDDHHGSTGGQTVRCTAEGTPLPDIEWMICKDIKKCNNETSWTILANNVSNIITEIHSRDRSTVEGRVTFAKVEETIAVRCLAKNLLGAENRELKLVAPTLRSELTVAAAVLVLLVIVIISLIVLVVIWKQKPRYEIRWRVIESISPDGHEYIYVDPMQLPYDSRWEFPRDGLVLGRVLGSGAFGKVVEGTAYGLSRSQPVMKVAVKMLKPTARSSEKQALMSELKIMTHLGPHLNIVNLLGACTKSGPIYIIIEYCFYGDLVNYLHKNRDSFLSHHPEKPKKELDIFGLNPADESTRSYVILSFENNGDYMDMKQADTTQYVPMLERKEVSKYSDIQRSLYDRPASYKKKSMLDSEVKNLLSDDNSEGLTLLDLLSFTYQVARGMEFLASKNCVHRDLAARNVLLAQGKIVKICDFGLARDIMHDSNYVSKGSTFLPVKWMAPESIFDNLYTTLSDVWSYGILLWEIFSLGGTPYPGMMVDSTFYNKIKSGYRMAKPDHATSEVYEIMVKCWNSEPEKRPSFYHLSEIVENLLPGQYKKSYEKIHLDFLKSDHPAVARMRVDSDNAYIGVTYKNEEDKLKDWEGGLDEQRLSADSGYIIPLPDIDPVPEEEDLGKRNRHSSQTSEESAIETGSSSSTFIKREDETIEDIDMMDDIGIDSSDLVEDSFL

[4] = cornea, read-out: Concentration (nM) Cornea
[5] = retina, read-out: Concentration (nM) retina
[6] = sclera/choroid, read-out: Concentration (nM) Sclera/choroid

Compound: Cc1cnc(Nc2ccc(N3CCN(C)CC3)cc2)nc1Nc1ccc(Cl)c2[nH]ccc12 [Compound LXXIV, N^4-(7-Chloro-1H-indol-4-yl)-5-methyl-N^2-(4-(4-methylpiperazin-1-yl)phenyl)pyrimidine-2,4-diamine]
- concentration at 2 h [1, 4]: 45000 nM
- concentration at 7 h [1, 4]: 21000 nM
- concentration at 2 h [1, 5]: 2120 nM
- concentration at 7 h [1, 5]: 2150 nM
- concentration at 2 h [1, 6]: 6090 nM
- concentration at 7 h [1, 6]: 7350 nM

Compound: COc1cc(Nc2nc(Nc3ccc(OC4CCNCC4)cc3)ncc2C)ccc1Cl [Compound LXXXII, N^4-(4-Chloro-3-methoxy-phenyl)-5-methyl-N^2-[4-(piperidin-4-yloxy)-phenyl]-pyrimidine-2,4-diamine]
- concentration at 2 h [1, 4]: 69900 nM
- concentration at 7 h [1, 4]: 45400 nM
- concentration at 2 h [1, 5]: 267 nM
- concentration at 7 h [1, 5]: 592 nM
- concentration at 2 h [1, 6]: 2340 nM
- concentration at 7 h [1, 6]: 2250 nM

Compound: Cc1cnc(Nc2ccc(OCCN3CCCC3)cc2)nc1Nc1cccc2c1OCO2 [Compound XXXVI, N^4-Benzo[1,3]dioxol-4-yl-5-methyl-N^2-[4-(2-pyrrolidin-1-yl-ethoxy)-phenyl]-pyrimidine-2,4-diamine]
- concentration at 2 h [1, 4]: 7870 nM
- concentration at 7 h [1, 4]: 18600 nM
- concentration at 2 h [1, 5]: 816 nM
- concentration at 7 h [1, 5]: 11200 nM
- concentration at 2 h [1, 6]: 7250 nM
- concentration at 7 h [1, 6]: 34800 nM

Compound: Cc1ccc(NC(=O)c2ccc(CN3CCN(C)CC3)cc2)cc1Nc1nccc(-c2cccnc2)n1 [Imatinib, imatinib mesylate]
- concentrations inhibiting EOL-1 growth [2]: picomolar concentrations

Compound: COc1cc(Nc2nc(Nc3ccc(OCCN4CCCC4)cc3)ncc2C#N)c(Cl)cc1Cl [drawing 298, 4-(2,4-Dichloro-5-methoxy-phenylamino)-2-[4-(2-pyrrolidin-1-yl-ethoxy)-phenylamino]-pyrimidine-5-carbonitrile]
- IC50 (recombinant JAK2): 6240 nM

Compound: COc1cc(Nc2nc(Nc3cccc(OCCN4CCCC4)c3)ncc2C#N)c(Cl)cc1Cl [drawing 299, 4-(2,4-Dichloro-5-methoxy-phenylamino)-2-[3-(2-pyrrolidin-1-yl-ethoxy)-phenylamino]-pyrimidine-5-carbonitrile]
- IC50 (recombinant JAK2): 10500 nM

Compound: COc1cc(Nc2nc(Nc3cccc(OCCN4CCCC4)c3)ncc2C)c(Cl)cc1Cl [drawing 300, N4-(2,4-Dichloro-5-methoxy-phenyl)-5-methyl-N2-[3-(2-pyrrolidin-1-yl-ethoxy)-phenyl]-pyrimidine-2,4-diamine]
- IC50 (recombinant JAK2): 2040 nM

Compound: COc1cccc(Nc2nc(Nc3ccc(OCCN4CCCC4)cc3)ncc2C)c1 [drawing 301, N2-(4-(2-(pyrrolidin-1-yl)ethoxy)phenyl)-N4-(3-methoxyphenyl)-5-methylpyrimidine-2,4-diamine Hydrochloride]
- IC50 (recombinant JAK2): 52.8 nM

Compound: COc1cc(Nc2nc(Nc3ccc(OCCN4CCCC4)cc3)ncc2C)ccc1Cl [drawing 311, N4-(4-Chloro-3-methoxy-phenyl)-5-methyl-N2-[4-(2-pyrrolidin-1-yl-ethoxy)-phenyl]-pyrimidine-2,4-diamine]
- IC50 (recombinant JAK2): 7.96 nM

Compound: Cc1cnc(Nc2ccc(OCCN3CCCC3)cc2)nc1Nc1cccc2c1OCO2 [drawing 333, N4-Benzo[1,3]dioxol-4-yl-5-methyl-N2-[4-(2-pyrrolidin-1-ylethoxy)-phenyl]-pyrimidine-2,4-diamine]
- IC50 (recombinant JAK2): 16.9 nM

Compound: Cc1cnc(Nc2ccc(N3CCN(C)CC3)cc2)nc1Nc1ccc(Cl)c2[nH]ccc12 [drawing 356, N4-(7-chloro-1H-indol-4-yl)-5-methyl-N2-(4-(4-methylpiperazin-1-yl)phenyl)pyrimidine-2,4-diamine]
- IC50 (recombinant JAK2): 5.36 nM

Compound: Cc1cnc(Nc2ccc(N3CCN(C)CC3)cc2)nc1Nc1cc(C)c(Cl)c(C)c1 [drawing 361, N4-(4-chloro-3,5-dimethylphenyl)-5-methyl-N2-(4-(4-methylpiperazin-1-yl)phenyi)pyrimidine-2,4-diamine Hydrochloride]
- IC50 (recombinant JAK2): 38 nM

Compound: Cc1cn(-c2cc(NC(=O)c3ccc(C)c(Nc4nccc(-c5cccnc5)n4)c3)cc(C(F)(F)F)c2)cn1 [nilotinib]
- concentrations inhibiting growth of Ba/F3 cells harboring FIP1L1-PDFGRA-T674I [3]: nanomolar concentrations

Now from value to compound:

- concentration at 2 h [1, 4]: 103000 nM
- concentration at 7 h [1, 4]: 26600 nM
- concentration at 2 h [1, 5]: 406 nM
- concentration at 7 h [1, 5]: 321 nM
- concentration at 2 h [1, 6]: 4840 nM
- concentration at 7 h [1, 6]: 3180 nM
Compound: COc1cc(Nc2nc(Nc3ccc(N4CCNCC4)cc3)ncc2C)ccc1Cl [Compound XLIV, N^4-(4-Chloro-3-methoxy-phenyl)-5-methyl-N^2-(4-piperazin-1-yl-phenyl)-pyrimidine-2,4-diamine]

- IC50 (recombinant JAK2): 32.9 nM
Compound: Cc1cnc(Nc2ccc(C(=O)N3CCOCC3)cc2)nc1Nc1cccc(S(=O)(=O)NC(C)(C)C)c1 [N-tert-Butyl-3-{5-methyl-2-[4-(morpholine-4-carbonyl)-phenylamino]-pyrimidin-4-ylamino}-benzenesulfonamide]

- IC50 (recombinant JAK2): 69 nM
Compound: Cc1cnc(Nc2ccc(C(=O)N3CCNCC3)cc2)nc1Nc1cccc(S(=O)(=O)NC(C)(C)C)c1 [N-tert-Butyl-3-{5-methyl-2-[4-(piperazine-1-carbonyl)-phenylamino]-pyrimidin-4-ylamino}-benzenesulfonamide]

- IC50 (recombinant JAK2): 33.5 nM
Compound: Cc1cnc(Nc2ccc(C(=O)N3CCCC3)cc2)nc1Nc1cccc(S(=O)(=O)NC(C)(C)C)c1 [N-tert-Butyl-3-{5-methyl-2-[4-(pyrrolidine-1-carbonyl)-phenylamino]-pyrimidin-4-ylamino}-benzenesulfonamide]

- IC50 (recombinant JAK2): 88.2 nM
Compound: Cc1ccc(Nc2nc(Nc3ccc(-n4ccnc4)cc3)ncc2C)cc1S(=O)(=O)NC(C)(C)C [N-tert-Butyl-5-[2-(4-imidazol-1-yl-phenylamino)-5-methyl-pyrimidin-4-ylamino]-2-methyl-benzenesulfonamide]

- IC50 (recombinant JAK2): 4.6 nM
Compound: Cc1cnc(Nc2ccc(CN3CCNCC3)cc2)nc1Nc1cccc(S(=O)(=O)NC(C)(C)C)c1 [N-tert-butyl-3-[(5-methyl-2-{[4-(piperazin-1-ylmethyl)phenyl]amino}pyrimidin-4-yl)amino]benzenesulfonamide]

- IC50 (recombinant JAK2): 22.5 nM
Compound: Cc1cnc(Nc2ccc(N3CCNCC3)c(C(F)(F)F)c2)nc1Nc1cccc(S(=O)(=O)NC(C)(C)C)c1 [N-tert-butyl-3-[(5-methyl-2-{[4-piperazin-1-yl-3-(trifluoromethyl)phenyl]amino}pyrimidin-4-yl)amino]benzenesulfonamide]

- IC50 (recombinant JAK2): 650 nM
Compound: Cc1cnc(Nc2cccc(S(=O)(=O)N3CCN(C)CC3)c2)nc1Nc1cccc(S(=O)(=O)NC(C)(C)C)c1 [N-tert-butyl-3-{[5-methyl-2-({3-[(4-methylpiperazin-1-yl)sulfonyl]phenyl}amino)pyrimidin-4-yl]amino}benzenesulfonamide]

- IC50 (recombinant JAK2): 6.15 nM
Compound: COc1cc(Nc2nc(Nc3ccc(N4CCNCC4)cc3)ncc2C)ccc1Cl [drawing 348, N4-(4-Chloro-3-methoxy-phenyl)-5-methyl-N2-(4-piperazin-1-yl-phenyl)-pyrimidine-2,4-diamine]

- IC50 (recombinant JAK2): 4.14 nM
Compound: COc1cc(Nc2nc(Nc3ccc(OC4CCNCC4)cc3)ncc2C)ccc1Cl [drawing 349, N4-(4-Chloro-3-methoxy-phenyl)-5-methyl-N2-[4-(piperidin-4-yloxy)-phenyl]-pyrimidine-2,4-diamine]

- IC50 (recombinant JAK2): 16.6 nM
Compound: Cc1ccc(Nc2nc(Nc3ccc(N4CCN(C)CC4)cc3)ncc2C)cc1C [drawing 459, 5-methyl-N4-(3,4-dimeihylphenyl)-N2-(4-(4-methylpiperazin-1-yl)phenyl)pyrimidine-2,4-diamine Hydrochloride]
